The text below walks through data of BindingDB's records for patent US9598446 (Achillion Pharmaceuticals, 2017).

In the experiment the target is Complement factor D (Homo sapiens, UniProt P00746). As to the kind of experiment: Factor D Assay. Here is the method: Human factor D (purified from human serum, Complement Technology, Inc.) at 80 nM final concentration is incubated with test compound at various concentrations for 5 minutes at room temperature in 50 mM Tris, 1M NaCl, pH 7.5. A synthetic substrate Z-L-Lys-SBz1 and DTNB (Ellman's reagent) are added to final concentrations of 100 μM each. The increase in color is recorded at OD405 nm in a microplate in kinetic mode over 30 minutes with 30 second time points in a […]. IC50 values are calculated by non-linear regression from the percentage of inhibition of complement factor D activity as a function of test compound concentration.
Complement factor D, sequence (P00746 whole entry): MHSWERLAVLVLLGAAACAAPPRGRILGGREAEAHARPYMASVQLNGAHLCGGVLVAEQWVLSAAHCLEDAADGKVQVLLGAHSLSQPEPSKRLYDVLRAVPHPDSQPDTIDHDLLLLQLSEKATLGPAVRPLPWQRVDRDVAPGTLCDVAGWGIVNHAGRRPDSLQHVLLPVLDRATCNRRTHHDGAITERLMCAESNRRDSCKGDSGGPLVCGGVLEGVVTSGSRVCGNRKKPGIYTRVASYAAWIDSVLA

For the compound `CC(=O)c1cn(CC(=O)N2C[C@H](F)C[C@H]2C(=O)Nc2cccc(-c3ccccc3Cl)c2F)c2ccc(N(COC(=O)C(C)(C)C)c3cncnc3)cc12` [US9598446, Compound 15], the IC50 (in general, the concentration needed to halve the response being measured) was “in the range around 5.5 µM”.
